Laboratory results reported in patent US9796777B2, “Methods of treating malignant tumors” (Canimguide Therapeutics AB, priority 2007, dated 2017).
Blank lines part the entries; values can stand above or below the substance they belong to.

Columns and labels:
mAb A = details: second trypsination of <30 kD fragments eluted from mAb A at pH 2.7
Description: MALDI epitope mapping of mAb A based on antibody protection of proteolysis was repeated. This time a slightly different approach was used. Denatured HSA was incubated with mAb A. Albumin not bound by the antibody, was removed from the sample by size exclusion on an ultra filter. The remaining free mabs and the complexes of mab-albumin was then digested with trypsin (sequences of the albumin molecule to which mab is bound should resist the trypsin digestion). Small cleaved fragments of mab and unprotected albumin was then removed from the sample by ultrafiltration (30 kD). The complexes of mAb and bound albumin fragments were dissociated by lowering the pH to 2.7. Again ultrafiltration at 30 kD was performed to separate whole mAb from albumin fragments smaller than 30 kD.
Denatured HSA (80 μg) was incubated with mAb A (10 μg) in PBS for 18 h at room temperature. […] The retentate was diluted in 25 mM NH4HCO3 and again centrifuged as described above. The retentate was transferred to a sterile eppendorf microcentrifuge tube in 0.4 ml 25 mM NH4HCO3 and 0.4 μg sequencing grade modified trypsin (Promega) was added. Digestion was carried out at 37° C. over night with gentle agitation. Trypsin and free (not antibody-bound) albumin fragments were removed by ultrafiltration on a Amicon Ultra-4 filter (mw cut-off 30 000 Da, Millipore Co.) for 5 min at 3000 rpm. This was repeated three times. The retentate was then transferred to a new ultra filter where the mAb A was disassociated from bound albumin by the addition of 600 μl 0.1 M glycine-HCl, pH 2.7, for 30 min at room temperature after which the ultra filter was centrifuged for 10 min at 3000 rpm. The filtrate was transferred to a sterile Eppendorf microcentrifuge tube and neutralized with Tris-HCl, pH 9. The sample was then immediately dried over night in a SpeedVac vacuum concentrator. The samples were then dissolved in 16 μl of sequencing grade modified trypsin (at 5 μg/ml) (Promega) and incubated at 37° C. for 18 hours. Zip Tip pipette tips (Millipore) containing C18 chromatorgraphy media were used for desalting before the sample was analysed by MALDI TOF ms (see below).
1 μl of each sample of the tryptic digestion was mixed with 1 μl of a saturated solution of α-cyano-4-hydroxycinamic acid ([…]) in 70% acetonitrile/0.3% trifluoro acetic acid. 1 μl of that mixture was spotted on a stainless steel target plate and analysed using MALDI-TOF ms (Voyager-DE PRO, Applied Biosystems, CA, US) equipped with a 337 nm N2 laser. Database searches for masses corresponding to human serum albumin in the resulting spectra were performed in NCBI or SwissProt with MS-Fit as search engine.

[1] = tested on: cell surface receptors of immune cells (ACS); test: Adsorption of enzyme fragmented dHSA on affinity column with biotinylated cell surface proteins (ACS), MALDI-TOF ms; assay type: binding, human
Description: Based on the observation that immunoregulatory peptide sequences are present in serum albumin, there is the possibility that other sequences than the epitope of mAb A have immunoregulatory function. Therefore an artificial cell surface (ACS) was prepared as described in materials and methods. […]
To remove unfragmented albumin and enzyme, the sample was ultra filtered through an Amicon Ultra 4 (mw cut-off of 5000) or a Centriplus (mw cut-off 10000) centrifugal filter (Millipore AB, Solna, Sweden). The filtrate, containing fragmented dHSA without enzymes, was collected and diluted with PBS with Ca and Mg (GIBCO).
Buffy coats generated from 450 ml blood each was collected from 4 healthy donors. Erythrocytes were removed by sedimentation on 2% dextran T500 solution (Amersham Pharmacia Biotech AB, Uppsala Sweden) in 0.9% NaCl. Mononuclear cells (PBMC) were then isolated by Ficoll-Paque Plus (GE Healthcare Bioscience AB Sweden) density gradient centrifugation. The PBMC were then suspended in phosphate buffered saline (PBS) containing Ca and Mg (GIBCO) at a concentration of 10×10^6/ml. EZ Link Sulfo-NHS-biotin (Pierce USA) was added at a final concentration of 0.2 mg/ml and the mixture incubated on a shaker at room temperature for 10 min. Excess biotin was then removed by washing the PBMC in PBS. Biotinylated PBMC were then lysed by adding 1.0 ml ice-cold lysing buffer (50 mM Tris-HCL, pH 7.5, with 0.15 M NaCl, 5 mM MgCl2 containing 100 mM Octyl glucoside and 1 mM Phenylmethylsulfonyl fluoride) per 2×10^7 pelleted cells with gentle shaking, then incubated for 30 min. on ice. Debris was removed by centrifugation at 5000×g at 4° C. for 10 min and the supernatants was collected and pooled from all four donors. The lysate was then stored at −70° C. in polypropylene plastic tubes.
This amount of lysate corresponds to 36×10^7 mononuclear cells. It was added to a 1 ml Hitrap Streptavidin HP affinity column (Amersham Biosciences). To block possible remaining free biotin, 5 ml of 0.1 M glycine (Sigma) was added to the column. Unsaturated streptavidin on the column was then reacted with 150 ug biotin (Sigma) in binding buffer. The column was carefully washed with PBS and stored in PBS with 0.1% NaN3 at 4° C. until use.
27 ml biotinylated cell lysate in binding buffer (corresponding to 54×10^7 mononuclear cells) was added to 1.5 ml washed Streptavidin Sepharose HP (Amersham Biosciences). To block possible remaining free biotin, 25 ml of 0.1 M glycine (Sigma) was added to the Streptavidin Sepharose. Unsaturated streptavidin was then reacted with 225 μg biotin (Sigma) in binding buffer. The Streptavidin Sepharose was carefully washed in PBS. One ml of the biotinylated cell lysate coupled Streptavidin Sepharose was then packed in an empty column (Tricorn Empty High Performance Column, Amersham Bioscience) and washed with phosphate buffered saline (PBS) containing Ca and Mg (GIBCO).
The flow-through was collected with consideration taken to void volume and dilution of adsorbed sample by collecting in small portions of 0.2 ml. Thirty ul of each sample, including a control sample that has not been adsorbed, were dried in a Speed-Vac centrifuge.
Dried samples were reconstituted in 10 ul of 0.1% TFA. Zip Tip pipette tips (Millipore, USA) containing C18 reversed-phase media were used for desalting reconstituted samples. […] For the analysis of samples in the mass range 1500-9000 Da, one μl of each Zip Tip eluted sample was mixed with 1 μl of sinapinic acid ([…]). […] Mass identity search of resulting spectra was performed in the SwissProt or NCBI databases using MS-Fit.

PBMC [2] = test: LPS-induced IL-6 production by PBMC, effect of peptides; assay type: cell-based, human
Description: 100 μl of culture medium consisting of RPMI1640 supplemented with 200 IU/ml penicillin, 200 μg/ml streptomycin, 4 mM L-glutamine (Sigma Chemical, Mo., US) and 20% fresh heat-inactivated autologous serum were added to un-coated or -pre-coated microtiter plates followed by 100 μl of PBMC suspension (5×10^4 lymphocytes) in RPMI/2% HSA with peptides at the indicated concentrations. Lipoplysaccharide (LPS, Sigma Chemical Co, MO, US) was added at a final concentration of 0.05 ng/ml. […] All assay conditions were set up in triplicate wells. Supernatants (SNs) were harvested after 24 hrs and residual cells were removed by centrifugation in a refrigerated centrifuge (Beckman) at 2600×g for 5 minutes. SNs were frozen and stored at −70° C. IL-6 in cell culture SNs was measured by ELISA using the DuoSet® ELISA development kit for human IL-6 (R&D Systems Europe, Ltd., Abingdon, UK) following the manufacturer's recommended procedures. The lower limit of detection was 3.1 pg/ml. Samples were analysed as mean of triplicate wells.

[3] = molecular target: T1, β2-integrin LFA-1 (CD11a) (Homo sapiens, UniProt P20701); test: Immunocytochemical staining of PBMC and THP-1 with anti-integrin (CD11a) antibody with or without albumin peptides; assay type: binding; details: monocytic cell line THP-1; peptide 40 μg/ml preincubation
T1 construct: endogenous in cells; host or cells: human PBMC (healthy controls, cancer patients) and THP-1 monocytic cell line (ATCC)
Description: Cytospin preparations of mononuclear blood cells from healthy controls, cancer patients and a monocytic cell line, THP-1, were prepared (as described under materials and methods), dried and stored at −70° C. In the immunocytological staining, unspecific staining was blocked by incubation with 10% human AB serum. Some of the slides were preincubated for 60 minutes with albumin peptides at a concentration of 40 μg/ml, added to this 10% AB serum, as indicated in the FIG. 8 A-F. The staining procedure was then continued as described in material and methods. The staining intensity of slides stained with and without preincubation with the peptides was recorded semi quantitatively using a standard light microscope.
PBMC were separated as described above. Cultured THP-1 cells (obtained from the American Type Culture Collection through LGL Nordic AB, Sweden) were carefully washed and suspended in RPMI1640. PBMC and THP-1 were immediately spun down on pre-cleaned microscope slides in a Shandon Cytospin (Shandon Scientific Ltd, UK) at 1000 RPM for 7 min at 2.5 or 5×10^4 cells per slide. The slides were left to dry at room temperature over night, after which they were wrapped in parafilm and stored at −70° C. Immediately before use, the cytospins were thawed and fixed with acetone for 5 min at room temperature. The cytospins were first blocked with 10% normal human AB-serum with and without albumin peptides (40 ␣g/ml) for 1 h before staining. Primary antibody, consisting of a monoclonal mouse anti-human CD11a (clone HI111, BD Biosciences) diluted in Tris buffered saline (TBS, pH 7.6) at 5 μg/ml (THP-1) or 1 µg/ml (PBMC), was added. The slides were incubated for 30 min and then washed in TBS followed by Envision-Alkaline Phosphatase (Dako Norden A/S, Denmark) for 30 min. After additional washing in TBS, the slides were incubated in alkaline phoshatase substrate consisting of Fast Red TR salt (Sigma), naphtol AS-MX (Sigma) and 5 mM levamisol (Sigma) to block endogenous alkaline phosphatase activity, for 20 min followed by washing in TBS. They were then counterstained in Mayer's haematoxylin for 1 minute and mounted in Glycergel (Dako Norden NS). Monoclonal mouse IgG1 against an irrelevant antigen (Aspergillus niger glukosoxidase, Dako Norden NS) was used as a negative control. All incubations were performed at room temperature in a moist chamber.
FIG. 24. Inhibition of the binding of anti-LFA-1, mab HI111, to mononuclear blood cells by 3028 peptide and fragments 3325 and 3218. A standard immunohistochemical staining procedure using acetone fixation, 10% human AB-serum for blocking, incubation with HI 111 and a secondary antibody (Ultravision, an alkaline phosphate conjugated polymer attached to Fab-fragments of goat anti-mouse Ig), followed by development with Fast Red. The slides were then mounted in Glycergel. Preincubation with peptides added to the AB serum was as follows: A. No peptide added, B. peptide 3028, C. The C-terminal part (3218), and D. The N-terminal part (3325).

PBMC [4] = test: IL-2 induced proliferation of PBMC with albumin peptides in coated and uncoated tissue culture plates; assay type: cell-based, human; details: PBMC from healthy individuals; peptide 5 μg/ml final; 7 days
Description: A mixture of 1 mg/ml IgG in a solution of 9 mg/ml HSA in RPMI (HSA/IgG) was also prepared. 200 μl of HSA or HSA/IgG were then added to each well of the plate. The plates were incubated at 4° C. for 30 minutes after which the wells were washed twice with 200 μl of RPMI1640. The coated plates were used immediately. […] PBMC, isolated from healthy individuals, were diluted in RPMI/2% HSA and peptides were added directly to the cell suspension at a concentration of 10 μg/ml.

[5] = Table 5 A, peptides generated by trypsin degradation of dHSA

T1 sequence (P20701 26-1170): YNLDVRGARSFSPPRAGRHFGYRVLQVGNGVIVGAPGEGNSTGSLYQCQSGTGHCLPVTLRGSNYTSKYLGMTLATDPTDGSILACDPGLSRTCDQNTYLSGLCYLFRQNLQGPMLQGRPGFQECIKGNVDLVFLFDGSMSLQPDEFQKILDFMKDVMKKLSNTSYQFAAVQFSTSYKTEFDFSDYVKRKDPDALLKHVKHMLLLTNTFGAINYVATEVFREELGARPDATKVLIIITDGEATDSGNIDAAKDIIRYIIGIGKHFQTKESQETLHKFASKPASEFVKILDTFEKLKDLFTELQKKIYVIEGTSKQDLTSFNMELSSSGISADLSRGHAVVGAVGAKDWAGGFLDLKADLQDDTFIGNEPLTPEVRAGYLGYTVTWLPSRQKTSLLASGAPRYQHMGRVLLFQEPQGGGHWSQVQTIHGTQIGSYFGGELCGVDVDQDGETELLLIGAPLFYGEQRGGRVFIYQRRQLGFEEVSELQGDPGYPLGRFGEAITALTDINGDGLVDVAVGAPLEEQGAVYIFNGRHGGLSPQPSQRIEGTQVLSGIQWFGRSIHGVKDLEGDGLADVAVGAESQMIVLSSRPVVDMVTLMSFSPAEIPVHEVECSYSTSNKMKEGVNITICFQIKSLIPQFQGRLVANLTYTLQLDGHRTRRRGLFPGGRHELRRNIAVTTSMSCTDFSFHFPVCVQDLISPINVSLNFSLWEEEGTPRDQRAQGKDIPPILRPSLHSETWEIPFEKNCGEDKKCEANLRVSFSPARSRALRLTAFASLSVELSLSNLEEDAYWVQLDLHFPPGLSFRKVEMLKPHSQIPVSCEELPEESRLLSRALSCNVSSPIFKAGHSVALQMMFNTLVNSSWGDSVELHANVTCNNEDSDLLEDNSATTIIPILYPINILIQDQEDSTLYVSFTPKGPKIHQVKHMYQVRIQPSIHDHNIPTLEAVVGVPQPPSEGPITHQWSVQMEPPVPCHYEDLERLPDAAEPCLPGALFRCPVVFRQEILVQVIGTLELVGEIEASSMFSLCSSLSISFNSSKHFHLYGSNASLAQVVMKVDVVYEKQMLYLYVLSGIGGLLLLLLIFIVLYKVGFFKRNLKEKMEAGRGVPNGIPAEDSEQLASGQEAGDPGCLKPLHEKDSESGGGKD
T1 sequence (P05107 23-769 partner): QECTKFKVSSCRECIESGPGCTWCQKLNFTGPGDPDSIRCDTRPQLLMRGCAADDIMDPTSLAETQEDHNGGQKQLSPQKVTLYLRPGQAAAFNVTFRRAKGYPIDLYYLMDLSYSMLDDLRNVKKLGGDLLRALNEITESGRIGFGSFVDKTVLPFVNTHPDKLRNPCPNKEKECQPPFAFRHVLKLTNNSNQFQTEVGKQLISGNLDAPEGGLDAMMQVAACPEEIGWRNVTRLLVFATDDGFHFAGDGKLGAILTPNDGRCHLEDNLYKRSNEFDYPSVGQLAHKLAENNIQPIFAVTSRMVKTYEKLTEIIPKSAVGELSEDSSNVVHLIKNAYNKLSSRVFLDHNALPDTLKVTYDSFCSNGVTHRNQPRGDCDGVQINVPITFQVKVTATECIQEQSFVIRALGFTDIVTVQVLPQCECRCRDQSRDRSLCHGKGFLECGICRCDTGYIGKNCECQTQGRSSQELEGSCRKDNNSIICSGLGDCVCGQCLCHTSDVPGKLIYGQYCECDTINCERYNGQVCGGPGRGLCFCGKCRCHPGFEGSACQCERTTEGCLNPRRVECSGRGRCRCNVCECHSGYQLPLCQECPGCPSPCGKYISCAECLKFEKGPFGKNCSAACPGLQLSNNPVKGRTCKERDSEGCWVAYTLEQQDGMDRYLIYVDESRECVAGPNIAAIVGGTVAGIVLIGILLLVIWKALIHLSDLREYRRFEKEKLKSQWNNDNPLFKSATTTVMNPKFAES

Substance: FQNALLVR [427-434, tryptic peptide of dHSA]
Peak area (mAb A): 1345
Per cent adsorbed [1, 5]: 0.41 Per cent

Substance: LCTVATLR [098-105, tryptic peptide of dHSA]
Peak area (mAb A): 744
Per cent adsorbed [1, 5]: 0.35 Per cent

Substance: LDELRDEGK [206-214, tryptic peptide of dHSA]
Peak area (mAb A): 644
Per cent adsorbed [1, 5]: 0.02 Per cent

Substance: CCTESLVNR [500-508, tryptic peptide of dHSA]
Peak area (mAb A): 119
Per cent adsorbed [1, 5]: 0.26 Per cent

Substance: DDNPNLPR [tryptic peptide of dHSA]
Peak area (mAb A): 534
Per cent adsorbed [1, 5]: 0.01 Per cent

Substance: LSQRFPK
Peak area (mAb A): 481

Substance: LVNEVTEFAK [066-075, tryptic peptide of dHSA]
Peak area (mAb A): 1918
Per cent adsorbed [1, 5]: -0.02 Per cent

effect on binding of the mAb to LFA-1 [3]: clearly enhanced
Substance: KLDELRDEGKAS [peptide 2606]
effect on LPS induced IL-6 production (PBMC [2]; PBMCs from one healthy control, lowest peptide concentration): inhibitory

Substance: YLYEIAR [162-168, tryptic peptide of dHSA]
Peak area (mAb A): 1035
Per cent adsorbed [1, 5]: 0.34 Per cent

Substance: KVPQVSTPTLVEVSR [compound 3029]
effect on LPS induced IL-6 production (PBMC [2]; three cancer patients): essentially no effects
effect on LPS induced IL-6 production (PBMC [2]; two healthy controls): slight stimulatory effect in only one of the controls
Per cent adsorbed [1, 5]: 0.64 Per cent
Per cent adsorbed ([1]; Table 5 B, trypsin peptides selected for synthesis): 0.64 Per cent
effect on IL-2 induced proliferation (PBMC [4]): no statistically significant activity
